Source: PubChem BioAssay (NCI)
Several values for one entry are separate records, joined by “and”; a condition that tells them apart may be missing. Equal values may be shown once.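 1) Cells in 96-well plates. 2) Compound, 48 h, 5 concentrations. 3) Linear interpolation between surrounding doses. 4) Unreached endpoint = highest concentration. Here, GI50 denotes the concentration required for 50% inhibition of growth. TGI: total growth inhibition.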

How the values were obtained:
Assay in all cases: NCI anticancer screen, dose series, 48 h
BT-549 breast = test system: BT-549 breast
EKVX NSCLC = test system: EKVX NSCLC
HCT-15 colon = test system: HCT-15 colon
SN12C renal = test system: SN12C renal
SK-MEL-5 melanoma = test system: SK-MEL-5 melanoma
HCT-116 colon = test system: HCT-116 colon
SK-MEL-28 melanoma = test system: SK-MEL-28 melanoma
M14 melanoma = test system: M14 melanoma
HOP-92 NSCLC = test system: HOP-92 NSCLC
MALME-3M melanoma = test system: MALME-3M melanoma
LOX IMVI melanoma = test system: LOX IMVI melanoma
SW-620 colon = test system: SW-620 colon
NCI-H23 lung = test system: NCI-H23 lung
MOLT-4 leukemia = test system: MOLT-4 leukemia
SF-268 CNS = test system: SF-268 CNS
PC-3 prostate = test system: PC-3 prostate
RXF 393 renal = test system: RXF 393 renal
K-562 leukemia = test system: K-562 leukemia
HS 578T breast = test system: HS 578T breast
HL-60(TB) leukemia = test system: HL-60(TB) leukemia
SF-295 CNS = test system: SF-295 CNS
MDA-MB-435 = test system: MDA-MB-435
CAKI-1 renal = test system: CAKI-1 renal
SF-539 CNS = test system: SF-539 CNS
U251 CNS = test system: U251 CNS
NCI-H460 lung = test system: NCI-H460 lung
HT29 colon = test system: HT29 colon
UACC-257 melanoma = test system: UACC-257 melanoma
786-0 renal = test system: 786-0 renal
COLO 205 colon = test system: COLO 205 colon
OVCAR-5 ovarian = test system: OVCAR-5 ovarian
UACC-62 melanoma = test system: UACC-62 melanoma
OVCAR-8 ovarian = test system: OVCAR-8 ovarian
TK-10 renal = test system: TK-10 renal
A498 renal = test system: A498 renal
SR leukemia = test system: SR leukemia
IGROV1 ovarian = test system: IGROV1 ovarian
KM12 colon = test system: KM12 colon
HCC-2998 colon = test system: HCC-2998 colon
SNB-19 CNS = test system: SNB-19 CNS
MCF7 breast = test system: MCF7 breast
NCI-H226 lung = test system: NCI-H226 lung
A549 NSCLC = test system: A549 NSCLC
OVCAR-4 ovarian = test system: OVCAR-4 ovarian
SK-MEL-2 melanoma = test system: SK-MEL-2 melanoma
DU-145 prostate = test system: DU-145 prostate
NCI-H522 lung = test system: NCI-H522 lung
HOP-62 NSCLC = test system: HOP-62 NSCLC
RPMI-8226 leukemia = test system: RPMI-8226 leukemia
ACHN renal = test system: ACHN renal
CCRF-CEM leukemia = test system: CCRF-CEM leukemia
MDA-MB-231 breast = test system: MDA-MB-231 breast
SK-OV-3 ovarian = test system: SK-OV-3 ovarian
UO-31 renal = test system: UO-31 renal
OVCAR-3 ovarian = test system: OVCAR-3 ovarian
T-47D breast = test system: T-47D breast
SNB-75 CNS = test system: SNB-75 CNS
NCI/ADR-RES ovarian = test system: NCI/ADR-RES ovarian

O=C(NNc1nc2cc(F)cc(F)c2n2cccc12)c1cccnn1
GI50 (BT-549 breast): 520 nM and 291 nM
TGI (BT-549 breast): 2260 nM and 9430 nM
GI50 (EKVX NSCLC): 350 nM and 164 nM
TGI (EKVX NSCLC): 13300 nM and 3260 nM
GI50 (HCT-15 colon): 124 nM and 48.3 nM
TGI (HCT-15 colon): 13500 nM and > 100000 nM
GI50 (SN12C renal): 500 nM and 554 nM
TGI (SN12C renal): 16400 nM and 19900 nM
GI50 (SK-MEL-5 melanoma): 504 nM and 312 nM
TGI (SK-MEL-5 melanoma): 4950 nM and 2390 nM
GI50 (HCT-116 colon): 151 nM
TGI (HCT-116 colon): 916 nM
GI50 (SK-MEL-28 melanoma): 517 nM and 528 nM
TGI (SK-MEL-28 melanoma): 12500 nM and 21600 nM
GI50 (M14 melanoma): 164 nM and 179 nM
GI50 (HOP-92 NSCLC): 778 nM and 440 nM
TGI (HOP-92 NSCLC): 8790 nM and 5340 nM
GI50 (MALME-3M melanoma): 784 nM and 1020 nM
TGI (MALME-3M melanoma): 6180 nM and 5970 nM
GI50 (LOX IMVI melanoma): 295 nM
TGI (LOX IMVI melanoma): 3570 nM
GI50 (SW-620 colon): 363 nM and 289 nM
TGI (SW-620 colon): 21100 nM and > 100000 nM
GI50 (NCI-H23 lung): 575 nM
TGI (NCI-H23 lung): > 100000 nM
GI50 (MOLT-4 leukemia): 186 nM and 167 nM
GI50 (SF-268 CNS): 359 nM and 209 nM
TGI (SF-268 CNS): 30000 nM and 11400 nM
GI50 (PC-3 prostate): 478 nM and 296 nM
TGI (PC-3 prostate): 30000 nM and > 100000 nM
GI50 (RXF 393 renal): 865 nM and 242 nM
TGI (RXF 393 renal): 3610 nM and 2170 nM
GI50 (K-562 leukemia): 817 nM and 263 nM
GI50 (HS 578T breast): 3790 nM and 1130 nM
TGI (HS 578T breast): 30000 nM and 36800 nM
GI50 (HL-60(TB) leukemia): 765 nM and 259 nM
GI50 (SF-295 CNS): 175 nM and 73.5 nM
TGI (SF-295 CNS): 4600 nM and 2140 nM
GI50 (MDA-MB-435): 1270 nM and 599 nM
TGI (MDA-MB-435): 30000 nM and 15800 nM
GI50 (CAKI-1 renal): 291 nM and 183 nM
TGI (CAKI-1 renal): 4960 nM and 5280 nM
GI50 (SF-539 CNS): 396 nM and 314 nM
TGI (SF-539 CNS): 3870 nM and 3350 nM
GI50 (U251 CNS): 241 nM and 113 nM
TGI (U251 CNS): 13300 nM and 4420 nM
GI50 (NCI-H460 lung): 147 nM and 61 nM
TGI (NCI-H460 lung): 3470 nM and 1280 nM
GI50 (HT29 colon): 725 nM and 475 nM
TGI (HT29 colon): 30000 nM and 27200 nM
GI50 (UACC-257 melanoma): 868 nM and 395 nM
TGI (UACC-257 melanoma): 3410 nM and 3630 nM
GI50 (786-0 renal): 208 nM and 261 nM
TGI (786-0 renal): 2460 nM and 6240 nM
GI50 (COLO 205 colon): 533 nM
TGI (COLO 205 colon): 5060 nM
GI50 (OVCAR-5 ovarian): 847 nM and 1390 nM
TGI (OVCAR-5 ovarian): 30000 nM and 31600 nM
GI50 (UACC-62 melanoma): 305 nM and 329 nM
GI50 (OVCAR-8 ovarian): 362 nM and 246 nM
TGI (OVCAR-8 ovarian): 30000 nM and > 100000 nM
GI50 (TK-10 renal): 792 nM and 317 nM
TGI (TK-10 renal): 20800 nM and 11300 nM
GI50 (A498 renal): 868 nM and 428 nM
TGI (A498 renal): 4850 nM and 3080 nM
GI50 (SR leukemia): 147 nM and 43.1 nM
GI50 (IGROV1 ovarian): 210 nM and 211 nM
TGI (IGROV1 ovarian): 4680 nM and 3640 nM
GI50 (KM12 colon): 507 nM and 185 nM
TGI (KM12 colon): 30000 nM and > 100000 nM
GI50 (HCC-2998 colon): 612 nM and 436 nM
TGI (HCC-2998 colon): 11300 nM and 18000 nM
GI50 (SNB-19 CNS): 409 nM and 337 nM
GI50 (MCF7 breast): 453 nM and 260 nM
TGI (MCF7 breast): 5670 nM and 2560 nM
GI50 (NCI-H226 lung): 341 nM and 799 nM
TGI (NCI-H226 lung): 5640 nM and 7420 nM
GI50 (A549 NSCLC): 378 nM and 215 nM
TGI (A549 NSCLC): 5720 nM and 3740 nM
GI50 (OVCAR-4 ovarian): 212 nM
TGI (OVCAR-4 ovarian): 8520 nM
GI50 (SK-MEL-2 melanoma): 1330 nM and 1170 nM
TGI (SK-MEL-2 melanoma): 19800 nM and 26200 nM
GI50 (DU-145 prostate): 507 nM and 371 nM
TGI (DU-145 prostate): 6230 nM and 4080 nM
GI50 (NCI-H522 lung): 890 nM and 254 nM
GI50 (HOP-62 NSCLC): 206 nM and 67.7 nM
TGI (HOP-62 NSCLC): 4770 nM and 5250 nM
GI50 (RPMI-8226 leukemia): 716 nM and 286 nM
TGI (RPMI-8226 leukemia): 30000 nM and 3060 nM
GI50 (ACHN renal): 164 nM and 165 nM
TGI (ACHN renal): 4140 nM and 3170 nM
GI50 (CCRF-CEM leukemia): 163 nM and 43.2 nM
GI50 (MDA-MB-231 breast): 820 nM and 784 nM
TGI (MDA-MB-231 breast): 10300 nM and > 100000 nM
GI50 (SK-OV-3 ovarian): 441 nM and 344 nM
TGI (SK-OV-3 ovarian): 6480 nM and 6700 nM
GI50 (UO-31 renal): 118 nM and 51.9 nM
TGI (UO-31 renal): 3630 nM and 1770 nM
GI50 (OVCAR-3 ovarian): 234 nM and 128 nM
TGI (OVCAR-3 ovarian): 5190 nM and 10700 nM
GI50 (T-47D breast): 632 nM and 322 nM
TGI (T-47D breast): 11300 nM and 4180 nM
TGI (SNB-75 CNS): 17900 nM and 7790 nM
GI50 (NCI/ADR-RES ovarian): 270 nM and 161 nM
TGI (NCI/ADR-RES ovarian): 3850 nM and 2190 nM
